In brackets after ≈: the same amount, converted by molar mass.
Tests used:
Assay type in all cases: functional
Bacillus subtilis = experiment: Antibacterial activity against Bacillus subtilis ATCC 6633 after 18 hrs by agar dilution method; settings: ATCC 6633, 18 h
Staphylococcus aureus = experiment: Antibacterial activity against Staphylococcus aureus ATCC 6538 after 18 hrs by agar dilution method; settings: ATCC 6538, 18 h
Klebsiella pneumoniae = experiment: Antibacterial activity against Klebsiella pneumoniae ATCC 10031 after 18 hrs by agar dilution method; settings: ATCC 10031, 18 h
Pseudomonas aeruginosa = experiment: Antibacterial activity against Pseudomonas aeruginosa ATCC 9027 after 18 hrs by agar dilution method; settings: ATCC 9027, 18 h
[1] = test system: Staphylococcus epidermidis; experiment: Antibacterial activity against Staphylococcus epidermidis ATCC 12228 after 18 hrs by agar dilution method; settings: ATCC 12228, 18 h
Escherichia coli = experiment: Antibacterial activity against Escherichia coli ATCC 8739 after 18 hrs by agar dilution method; settings: ATCC 8739, 18 h

SMILES	MIC (Bacillus subtilis) [µg/mL]	MIC (Staphylococcus aureus) [µg/mL]	MIC (Klebsiella pneumoniae) [µg/mL]	MIC (Pseudomonas aeruginosa) [µg/mL]	MIC [1] [µg/mL]	MIC (Escherichia coli) [µg/mL]
CCn1cc(C(=O)O)c(=O)c2cc(F)c(N3CCN(Cc4ccc([N+](=O)[O-])o4)CC3)cc21	12.5 (≈ 28.1 µM)	1.56 (≈ 3.51 µM)	6.25 (≈ 14.1 µM)	25 (≈ 56.3 µM)	3.13 (≈ 7.04 µM)	6.25 (≈ 14.1 µM)
O=C(O)c1cn(C2CC2)c2cc(N3CCN(Cc4ccc([N+](=O)[O-])o4)CC3)c(F)cc2c1=O	0.78 (≈ 1.71 µM)	0.39 (≈ 0.854 µM)	0.39 (≈ 0.854 µM)	3.13 (≈ 6.86 µM)	1.56 (≈ 3.42 µM)	1.56 (≈ 3.42 µM)
COc1c(N2CCN(Cc3ccc([N+](=O)[O-])o3)C(C)C2)c(F)cc2c(=O)c(C(=O)O)cn(C3CC3)c12 (stereo unspecified)	3.13 (≈ 6.25 µM)	0.78 (≈ 1.56 µM)	1.56 (≈ 3.12 µM)	6.25 (≈ 12.5 µM)	1.56 (≈ 3.12 µM)	3.13 (≈ 6.25 µM)
CCn1cc(C(=O)O)c(=O)c2cc(F)c(N3CCN(Cc4ccc([N+](=O)[O-])o4)CC3)nc21	6.25 (≈ 14 µM)	0.39 (≈ 0.876 µM)	3.13 (≈ 7.03 µM)	12.5 (≈ 28.1 µM)	3.13 (≈ 7.03 µM)	6.25 (≈ 14 µM)
C[C@H]1COc2c(N3CCN(Cc4ccc([N+](=O)[O-])o4)CC3)c(F)cc3c(=O)c(C(=O)O)cn1c23	0.78 (≈ 1.65 µM)	1.56 (≈ 3.3 µM)	1.56 (≈ 3.3 µM)	12.5 (≈ 26.5 µM)	0.39 (≈ 0.826 µM)	0.78 (≈ 1.65 µM)
O=C(O)c1cn(C2CC2)c2cc(N3CCN(Cc4ccc([N+](=O)[O-])cc4)CC3)c(F)cc2c1=O	3.13 (≈ 6.71 µM)	3.13 (≈ 6.71 µM)	12.5 (≈ 26.8 µM)	50 (≈ 107 µM)	3.13 (≈ 6.71 µM)	3.13 (≈ 6.71 µM)
CCn1cc(C(=O)O)c(=O)c2cc(F)c(N3CCN(Cc4ccc([N+](=O)[O-])o4)C(C)C3)c(F)c21 (racemic)	0.097 (≈ 0.204 µM)	1.56 (≈ 3.27 µM)	6.25 (≈ 13.1 µM)	25 (≈ 52.5 µM)	3.13 (≈ 6.57 µM)	0.39 (≈ 0.819 µM)
O=C(O)c1cn(C2CC2)c2cc(N3CCNCC3)c(F)cc2c1=O [CIPROFLOXACIN]	0.195 (≈ 0.589 µM)	0.195 (≈ 0.589 µM)	0.049 (≈ 0.148 µM)	0.39 (≈ 1.18 µM)	0.195 (≈ 0.589 µM)	0.097 (≈ 0.293 µM)
CCn1cc(C(=O)O)c(=O)c2cc(F)c(N3CCNCC3)nc21 [ENOXACIN]	0.195 (≈ 0.609 µM)	0.39 (≈ 1.22 µM)	0.78 (≈ 2.44 µM)	1.56 (≈ 4.87 µM)	0.78 (≈ 2.44 µM)	0.39 (≈ 1.22 µM)
COc1c(N2CCNC(C)C2)c(F)cc2c(=O)c(C(=O)O)cn(C3CC3)c12 (stereo unspecified) [GATIFLOXACIN]	0.78 (≈ 2.08 µM)	0.78 (≈ 2.08 µM)	0.195 (≈ 0.519 µM)	0.78 (≈ 2.08 µM)	0.78 (≈ 2.08 µM)	1.56 (≈ 4.16 µM)
C[C@H]1COc2c(N3CCN(C)CC3)c(F)cc3c(=O)c(C(=O)O)cn1c23.C[C@H]1COc2c(N3CCN(C)CC3)c(F)cc3c(=O)c(C(=O)O)cn1c23.O [LEVOFLOXACIN]	0.78	0.39	0.39	3.13	0.39	–
C[C@H]1COc2c(N3CCNCC3)c(F)cc3c(=O)c(C(=O)O)cn1c23 [N-DESMETHYL LEVOFLOXACIN]	1.56 (≈ 4.49 µM)	3.13 (≈ 9.01 µM)	0.39 (≈ 1.12 µM)	> 6.25	1.56 (≈ 4.49 µM)	–
CCn1cc(C(=O)O)c(=O)c2cc(F)c(N3CCNCC3)cc21 [NORFLOXACIN]	0.195 (≈ 0.611 µM)	0.39 (≈ 1.22 µM)	0.39 (≈ 1.22 µM)	1.56 (≈ 4.89 µM)	0.39 (≈ 1.22 µM)	0.195 (≈ 0.611 µM)
